Assays:
[1] = molecular target: T1, MC4 (Homo sapiens, UniProt P32245); assay: GPCR radioligand binding (RLB) assay, melanocortin MC4, [125I]NDP-αMSH
T1 construct: purchased Perkin Elmer BioSignal; host or cells: HEK 293
Outline: (§1)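 Competition binding against radioligand ([125I]NDP-αMSH for MC4, [125I]SST-14 for SST5) on membranes of HEK 293 cells carrying the human receptor; buffer and incubation time optimized per receptor. Filtration through 0.5% PEI-treated glass fiber, washing, then scintillation counting.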

[2] = molecular target: T2, SST5 (Homo sapiens, UniProt P35346); assay: GPCR radioligand binding (RLB) assay, somatostatin SST5, [125I]SST-14; settings: for SSTS inhibition at 10 micromolar: Example Library 4; for SST5 inhibition at 10 micromolar: 10 micromolar compound, recombinant human receptor membranes (HEK 293)
T2 construct: purchased Perkin Elmer BioSignal; host or cells: HEK 293
T2 sequence (P35346 whole entry): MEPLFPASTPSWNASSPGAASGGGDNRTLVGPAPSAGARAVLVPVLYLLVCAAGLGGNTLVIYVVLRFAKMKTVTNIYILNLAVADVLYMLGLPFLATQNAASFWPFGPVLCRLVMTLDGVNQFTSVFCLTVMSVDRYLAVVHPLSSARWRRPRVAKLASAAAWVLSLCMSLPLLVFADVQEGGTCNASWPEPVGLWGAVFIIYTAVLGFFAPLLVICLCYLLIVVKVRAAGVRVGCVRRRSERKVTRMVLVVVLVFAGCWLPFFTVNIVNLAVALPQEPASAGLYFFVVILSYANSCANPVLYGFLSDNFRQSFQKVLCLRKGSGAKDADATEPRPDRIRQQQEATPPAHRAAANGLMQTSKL
Outline: as §1

[3] = 10 micromolar, Example Library 4
[4] = 10 micromolar compound, recombinant human receptor membranes (HEK 293)

T1 sequence (P32245 whole entry): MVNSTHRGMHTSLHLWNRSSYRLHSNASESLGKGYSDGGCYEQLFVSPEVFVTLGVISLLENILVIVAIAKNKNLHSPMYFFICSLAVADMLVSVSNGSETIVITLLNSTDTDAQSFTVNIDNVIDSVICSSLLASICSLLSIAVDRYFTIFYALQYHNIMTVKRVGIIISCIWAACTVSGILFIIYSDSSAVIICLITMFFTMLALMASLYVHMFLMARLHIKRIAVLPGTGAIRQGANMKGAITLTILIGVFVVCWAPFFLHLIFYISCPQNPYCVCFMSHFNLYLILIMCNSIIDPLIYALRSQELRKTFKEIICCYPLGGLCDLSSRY

Row | Compound | MC4 inhibition at 10 micromolar [1, 3] | SSTS inhibition at 10 micromolar [2] | MC4 inhibition at 10 micromolar [1, 4] | SST5 inhibition at 10 micromolar [2]
1 | COCC1OC(OCCc2ccccc2)C(NC(=O)CN)C(OCc2ccc(-c3ccccc3)cc2)C1O (stereo not drawn) [Compound 272] | + (Indicates inhibition greater than . . . 50%) | + (Indicates inhibition greater than . . . 50%) |  | 
2 | COCC1OC(OCc2ccc(Cl)cc2)C(NC(=O)CCCN)C(OCc2ccc(Cl)cc2)C1O (stereo not drawn) [Compound 246] | + (Indicates inhibition greater than . . . 50%) | + (Indicates inhibition greater than . . . 50%) |  | 
3 | COC[C@H]1OC(OCc2ccc3ccccc3c2)[C@H](NC(=O)CCNC(=N)N)[C@@H](OCc2ccc(-c3ccccc3)cc2)[C@@H]1O (stereo partly drawn) [Compound 36] |  |  | + (Indicates inhibition greater than . . . 50%) | + (Indicates inhibition greater than . . . 50%)
4 | COCC1OC(OCc2ccc3ccccc3c2)C(NC(=O)CCNC(=N)N)C(OCc2ccccc2)C1O (stereo not drawn) [Compound 287] | + (Indicates inhibition greater than . . . 50%) | + (Indicates inhibition greater than . . . 50%) |  | 
5 | COCC1OC(OCc2ccc3ccccc3c2)C(NC(=O)CN)C(OCc2ccccc2)C1O (stereo not drawn) [Compound 286] | + (Indicates inhibition greater than . . . 50%) | + (Indicates inhibition greater than . . . 50%) |  | 
6 | CSC1O[C@H](COCc2ccc(Cl)cc2)[C@@H](O)[C@H](OCc2cccc(N)c2)[C@H]1NC(=O)Cc1c[nH]c2ccccc12 (stereo partly drawn) [Compound 324] |  |  | + (Indicates inhibition greater than . . . 50%) | + (Indicates inhibition greater than . . . 50%)
7 | CSC1OC(COCc2ccc3ccccc3c2)C(O)C(OCc2ccc(Cl)cc2)C1NC(=O)CCN (stereo not drawn) [Compound 163] |  |  | + (Indicates inhibition greater than . . . 50%) | + (Indicates inhibition greater than . . . 50%)
8 | COC1C(O)C(COCc2ccc3ccccc3c2)OC(OCc2ccc3ccccc3c2)C1NC(=O)CCCN (stereo not drawn) [Compound 73] |  |  | + (Indicates inhibition greater than . . . 50%) | + (Indicates inhibition greater than . . . 50%)
9 | COCC1OC(OCc2ccc(Cl)cc2)C(NC(=O)CNC(=N)N)C(OCc2ccc(-c3ccccc3)cc2)C1O (stereo not drawn) [Compound 249] | + (Indicates inhibition greater than . . . 50%) | + (Indicates inhibition greater than . . . 50%) |  | 
10 | COCC1OC(OCCc2ccccc2)C(NC(=O)CCNC(=N)N)C(OCc2ccc(Cl)cc2)C1O (stereo not drawn) [Compound 269] | + (Indicates inhibition greater than . . . 50%) | + (Indicates inhibition greater than . . . 50%) |  | 
11 | COC1C(O)C(COCc2ccc(-c3ccccc3)cc2)OC(OCc2ccc(Cl)cc2)C1NC(=O)CCNC(=N)N (stereo not drawn) [Compound 84] |  |  | + (Indicates inhibition greater than . . . 50%) | + (Indicates inhibition greater than . . . 50%)
12 | CSC1OC(COCc2ccc(Cl)cc2)C(O)C(OCc2ccc(Cl)cc2)C1NC(=O)CCNC(=N)N (stereo not drawn) [Compound 152] |  |  | + (Indicates inhibition greater than . . . 50%) | + (Indicates inhibition greater than . . . 50%)
13 | COCC1OC(OCc2ccc(Cl)cc2)C(NC(=O)CCCNC(=N)N)C(OCc2ccc3ccccc3c2)C1O (stereo not drawn) [Compound 259] | + (Indicates inhibition greater than . . . 50%) | + (Indicates inhibition greater than . . . 50%) |  | 
14 | COCC1OC(OCc2ccccc2)C(NC(=O)CCCN)C(OCc2ccc(-c3ccccc3)cc2)C1O (stereo not drawn) [Compound 229] | + (Indicates inhibition greater than . . . 50%) | + (Indicates inhibition greater than . . . 50%) |  | 
15 | CSC1OC(COCc2ccccc2)C(O)C(OCc2ccc(Cl)cc2)C1NC(=O)CCCNC(=N)N (stereo not drawn) [Compound 148] |  |  | + (Indicates inhibition greater than . . . 50%) | + (Indicates inhibition greater than . . . 50%)
16 | COCC1OC(OCc2ccccc2)C(NC(=O)CCCNC(=N)N)C(OCc2ccccc2)C1O (stereo not drawn) [Compound 218] | + (Indicates inhibition greater than . . . 50%) | + (Indicates inhibition greater than . . . 50%) |  | 
17 | CSC1OC(COCc2ccc(-c3ccccc3)cc2)C(O)C(OCc2ccc(Cl)cc2)C1NC(=O)CCCN (stereo not drawn) [Compound 159] |  |  | + (Indicates inhibition greater than . . . 50%) | + (Indicates inhibition greater than . . . 50%)
18 | COCC1OC(OCc2ccc(Cl)cc2)C(NC(=O)CCNC(=N)N)C(OCc2ccc(-c3ccccc3)cc2)C1O (stereo not drawn) [Compound 251] | + (Indicates inhibition greater than . . . 50%) | + (Indicates inhibition greater than . . . 50%) |  | 
19 | CSC1OC(COCc2ccccc2)C(O)C(OCc2ccc(Cl)cc2)C1NC(=O)CNC(=N)N (stereo not drawn) [Compound 144] |  |  | + (Indicates inhibition greater than . . . 50%) | + (Indicates inhibition greater than . . . 50%)
20 | CSC1OC(COCc2ccccc2)C(O)C(OCc2ccc(Cl)cc2)C1NC(=O)CCNC(=N)N (stereo not drawn) [Compound 146] |  |  | + (Indicates inhibition greater than . . . 50%) | + (Indicates inhibition greater than . . . 50%)
21 | CSC1OC(COCc2cccc(N)c2)C(O)C(OCc2ccccc2)C1NC(=O)Cc1ccccc1 (stereo not drawn) [Compound 327] |  |  | + (Indicates inhibition greater than . . . 50%) | + (Indicates inhibition greater than . . . 50%)
22 | COCC1OC(OCc2ccc(Cl)cc2)C(NC(=O)CCCNC(=N)N)C(OCc2ccc(-c3ccccc3)cc2)C1O (stereo not drawn) [Compound 253] | + (Indicates inhibition greater than . . . 50%) | + (Indicates inhibition greater than . . . 50%) |  | 
23 | CSC1OC(COCc2ccc(-c3ccccc3)cc2)C(O)C(OCc2ccccc2)C1NC(=O)CCN (stereo not drawn) [Compound 133] |  |  | + (Indicates inhibition greater than . . . 50%) | + (Indicates inhibition greater than . . . 50%)
24 | COC[C@H]1OC(OCc2ccc(-c3ccccc3)cc2)[C@H](NC(=O)CCNC(=N)N)[C@@H](OCc2ccc(Cl)cc2)[C@@H]1O (stereo partly drawn) [Compound 32] |  |  | + (Indicates inhibition greater than . . . 50%) | + (Indicates inhibition greater than . . . 50%)
25 | COCC1OC(OCc2ccc(Cl)cc2)C(NC(=O)CNC(=N)N)C(OCc2ccc(Cl)cc2)C1O (stereo not drawn) [Compound 243] | + (Indicates inhibition greater than . . . 50%) | + (Indicates inhibition greater than . . . 50%) |  | 
26 | CSC1OC(COCc2ccc(-c3ccccc3)cc2)C(O)C(OCc2ccc(Cl)cc2)C1NC(=O)CNC(=N)N (stereo not drawn) [Compound 156] |  |  | + (Indicates inhibition greater than . . . 50%) | + (Indicates inhibition greater than . . . 50%)
27 | COCC1OC(OCc2ccc(Cl)cc2)C(NC(=O)CCN)C(OCc2ccc(-c3ccccc3)cc2)C1O (stereo not drawn) [Compound 250] | + (Indicates inhibition greater than . . . 50%) | + (Indicates inhibition greater than . . . 50%) |  | 

Source: patent US7994140B2, “Classes of compounds that interact with GPCRs” (Alchemia Limited, priority 2002, dated 2011)
